Data on 38 molecules can be found in US11999699B2, “Substituted pyrazole amides” (GRUENENTHAL GMBH, priority 2021, dated 2024).

This test concerns the target T1, human NaV1.8 (Homo sapiens, UniProt Q9Y5Y9).
T1 construct: The following NaV1.8 recombinant cell line was used for recordings: HEK-NaV1.8 (NM 006514.1); expressed in transfected cells; host or cells: HEK (recombinant cell line HEK-NaV1.8)
The experiment in a line: Electrophysiology: automated whole-cell voltage-clamp (patch clamp, Qube384) recordings of sodium currents in HEK-NaV1.8 cells. It counts as cell-based. The conditions noted are these: potency data either taken from inactivated or resting state, read-out: Potency category (human NaV1.8 IC50). In outline:
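Automated whole-cell patch clamp at room temperature on HEK cells expressing human NaV1.8, with 0.3% DMSO vehicle controls. State-dependent protocol from −120 mV tested resting (P1) and half-inactivated (P2, 4 s at V1/2) channels, plus 40-pulse trains at 10 and 20 Hz. Values after ~12 min compound exposure were normalised to baseline and corrected for vehicle run-down; IC50 from a 4-parameter logistic fit, taken from inactivated or resting state.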

Molecules are shown by their SMILES.

As a reminder, the IC50 is the concentration at which inhibition is half-maximal.

T1 sequence (Q9Y5Y9 whole entry): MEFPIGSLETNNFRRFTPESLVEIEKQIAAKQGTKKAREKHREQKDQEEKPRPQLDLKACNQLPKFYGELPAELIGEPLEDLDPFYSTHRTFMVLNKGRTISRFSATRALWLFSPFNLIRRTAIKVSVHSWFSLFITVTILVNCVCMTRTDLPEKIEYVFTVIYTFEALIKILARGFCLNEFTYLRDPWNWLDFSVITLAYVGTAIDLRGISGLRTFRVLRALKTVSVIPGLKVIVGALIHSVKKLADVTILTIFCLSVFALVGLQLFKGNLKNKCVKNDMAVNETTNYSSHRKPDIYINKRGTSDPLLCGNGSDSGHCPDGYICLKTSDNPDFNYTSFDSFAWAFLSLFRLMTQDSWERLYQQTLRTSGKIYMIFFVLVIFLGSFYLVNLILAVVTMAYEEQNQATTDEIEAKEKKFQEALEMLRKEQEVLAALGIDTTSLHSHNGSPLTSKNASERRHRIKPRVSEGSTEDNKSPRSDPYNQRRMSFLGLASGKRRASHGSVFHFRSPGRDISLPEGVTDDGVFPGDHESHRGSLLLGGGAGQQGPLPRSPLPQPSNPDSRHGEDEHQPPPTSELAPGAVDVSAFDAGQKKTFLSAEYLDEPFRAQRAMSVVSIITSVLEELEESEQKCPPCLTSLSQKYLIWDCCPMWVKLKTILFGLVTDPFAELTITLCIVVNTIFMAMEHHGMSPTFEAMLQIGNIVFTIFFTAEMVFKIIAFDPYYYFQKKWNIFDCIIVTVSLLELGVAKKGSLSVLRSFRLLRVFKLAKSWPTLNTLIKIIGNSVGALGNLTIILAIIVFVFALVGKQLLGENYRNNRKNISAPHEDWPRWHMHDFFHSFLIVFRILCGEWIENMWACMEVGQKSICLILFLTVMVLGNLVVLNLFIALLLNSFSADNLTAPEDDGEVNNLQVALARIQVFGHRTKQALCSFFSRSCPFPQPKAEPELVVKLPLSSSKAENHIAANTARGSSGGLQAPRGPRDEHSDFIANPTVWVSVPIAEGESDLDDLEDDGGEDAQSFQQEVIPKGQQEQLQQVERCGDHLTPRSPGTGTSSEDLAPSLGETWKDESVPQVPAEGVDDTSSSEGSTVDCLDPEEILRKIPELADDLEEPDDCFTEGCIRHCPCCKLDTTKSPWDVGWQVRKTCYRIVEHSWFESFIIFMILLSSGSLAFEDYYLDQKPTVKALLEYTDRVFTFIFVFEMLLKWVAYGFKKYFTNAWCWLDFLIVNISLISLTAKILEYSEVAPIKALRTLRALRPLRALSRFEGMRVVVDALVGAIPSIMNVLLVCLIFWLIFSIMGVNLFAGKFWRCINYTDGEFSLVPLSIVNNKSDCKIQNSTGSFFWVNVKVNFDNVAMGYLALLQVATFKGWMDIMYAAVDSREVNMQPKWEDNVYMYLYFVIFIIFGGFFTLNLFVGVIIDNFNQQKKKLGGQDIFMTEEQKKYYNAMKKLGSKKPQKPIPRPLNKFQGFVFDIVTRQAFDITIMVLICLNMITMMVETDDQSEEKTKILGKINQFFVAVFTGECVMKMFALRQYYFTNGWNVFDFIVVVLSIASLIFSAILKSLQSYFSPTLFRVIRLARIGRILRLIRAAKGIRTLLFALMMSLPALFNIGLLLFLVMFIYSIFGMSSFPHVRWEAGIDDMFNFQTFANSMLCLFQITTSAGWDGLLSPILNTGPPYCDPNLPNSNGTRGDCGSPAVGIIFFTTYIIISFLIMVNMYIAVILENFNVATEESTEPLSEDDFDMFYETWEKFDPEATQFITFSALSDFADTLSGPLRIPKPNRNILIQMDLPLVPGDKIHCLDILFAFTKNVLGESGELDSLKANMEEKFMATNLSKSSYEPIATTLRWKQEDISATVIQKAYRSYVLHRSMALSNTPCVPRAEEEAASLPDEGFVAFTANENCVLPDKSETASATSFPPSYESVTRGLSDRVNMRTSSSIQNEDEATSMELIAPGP
T1 sequence (Q9NY72 23-215 partner): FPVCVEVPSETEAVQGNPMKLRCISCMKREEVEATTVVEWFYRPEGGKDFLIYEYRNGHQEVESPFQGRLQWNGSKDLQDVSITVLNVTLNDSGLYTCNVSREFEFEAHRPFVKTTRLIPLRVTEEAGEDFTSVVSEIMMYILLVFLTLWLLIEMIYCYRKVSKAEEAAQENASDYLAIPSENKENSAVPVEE

For `CS(=O)(=O)c1cccc(NC(=O)c2c(C(F)(F)F)cnn2CC2CCC(F)(F)CC2)c1F` [SC-16, 2-[(4,4-difluorocyclohexyl)methyl]-N-(2-fluoro-3-methylsulfonylphenyl)-4-(trifluoromethyl)pyrazole-3-carboxamide], the 50% inhibitory concentration (IC50) lay within 1000 to 10000 nM.
As to `Cc1c(C(C)(F)F)nn(CC2(C)CCC(F)(F)C2)c1C(=O)Nc1ccnc(S(N)(=O)=O)c1` (single isomer, unassigned) [SC-212a], the IC50 was no more than 100 nM.
As to `NC(=O)c1cc(NC(=O)c2c(C(F)(F)F)c(C3CC3)nn2C[C@@H]2CC[C@H](C(F)(F)F)O2)ccn1` (single isomer, unassigned) [SC-284b], the IC50 is no more than 100 nM.
With `O=C(Nc1ccnc(O)c1)c1c(C(F)(F)F)cnn1CC1CCCCCC1` [SC-31, 2-(cycloheptylmethyl)-N-(2-hydroxypyridin-4-yl)-4-(trifluoromethyl)pyrazole-3-carboxamide], the IC50 fell in the range of 100 to 1000 nM.
On to `NC(=O)c1cc(NC(=O)c2c(C(F)(F)F)c(C3CC3)nn2CC2CCCOC2)ccn1` (single isomer, unassigned) [SC-145b, 4-(3-Cyclopropyl-1-((tetrahydro-2H-pyran-3-yl)methyl)-4-(trifluoromethyl)-1H-pyrazole-5-carboxamido)picolinamide], for which the IC50 is no more than 100 nM.
For the molecule `NC(=O)c1cc(NC(=O)c2c(C(F)(F)F)cnn2CC2CCC(F)(F)CC2)ccc1F` [SC-39, N-(3-carbamoyl-4-fluorophenyl)-2-[(4,4-difluorocyclohexyl)methyl]-4-(trifluoromethyl)pyrazole-3-carboxamide], the IC50 was 100 to 1000 nM.
As for `C[C@@H]1CC[C@H](Cn2nc(C3CC3)c(C(F)(F)F)c2C(=O)Nc2ccnc(C(N)=O)c2)O1` (single isomer, unassigned) [SC-286a], the IC50 lay within 100 to 1000 nM.
`Cc1c(C(C)(F)F)nn([C@@H](C)C2CC(F)(F)C2)c1C(=O)Nc1ccnc(S(C)(=O)=O)c1` [SC-222a]: the IC50 was in the range of 100 to 1000 nM.
As for `CS(=O)(=O)c1cccc(NC(=O)c2c(C(F)(F)F)cnn2CC2CCCCCC2)c1` [SC-27, 2-(cycloheptylmethyl)-N-(3-methylsulfonylphenyl)-4-(trifluoromethyl)pyrazole-3-carboxamide], the IC50 is no more than 100 nM.
Regarding `Cc1c(C(C)(F)F)nn(CC2(C)CCCCO2)c1C(=O)Nc1ccnc(S(N)(=O)=O)c1` (single isomer, unassigned) [SC-312a], the IC50 lay within 100 to 1000 nM.
Regarding `CCc1nn(CC2CCC(F)(F)C2)c(C(=O)Nc2ccnc(C(N)=O)c2)c1C(F)(F)F` (centres unmarked) [SC-218, 4-(1-((3,3-difluorocyclopentyl)methyl)-3-ethyl-4-(trifluoromethyl)-1H-pyrazole-5-carboxamido)picolinamide], the IC50 is no more than 100 nM.
As to `NS(=O)(=O)c1cccc(NC(=O)c2c(C(F)(F)F)cnn2CC2CCCCC2)c1` [SC-33, 2-(cyclohexylmethyl)-N-(3-sulfamoylphenyl)-4-(trifluoromethyl)pyrazole-3-carboxamide], the IC50 is no more than 100 nM.
The result for `NS(=O)(=O)c1cccc(NC(=O)c2c(C(F)(F)F)c(C3CC3)nn2CC2CC(F)(F)C2)c1` [SC-276, 3-cyclopropyl-1-((3,3-difluorocyclobutyl)methyl)-N-(3-sulfamoyIphenyl)-4-(trifluoromethyl)-lH-pyrazole-5-carboxamide] reads no more than 100 nM; that for `CS(=O)(=O)c1cc(NC(=O)c2c(C(F)(F)F)cnn2CC2CCC(F)(F)CC2)ccn1` [SC-14, 2-[(4,4-difluorocyclohexyl)methyl]-N-(2-methylsulfonylpyridin-4-yl)-4-(trifluoromethyl)pyrazole-3-carboxamide], 1000 to 10000 nM; that for `CC1CC(Cn2nc(C3CC3)c(C(F)(F)F)c2C(=O)Nc2ccnc(C(N)=O)c2)CCO1` (centres unmarked) [SC-135, 4-(3-cyclopropyl-1-((2-methyltetraliydro-2H-pyran-4-yl)methyl)-4-(trifluoromethyl)-1H-pyrazole-5-carboxamido)picolinamide], no more than 100 nM.
Turning to `CS(=O)(=O)c1cc(NC(=O)c2c(C(F)F)c(C3CC3)nn2CC2CCC(F)(F)C2)ccn1` (centres unmarked) [SC-275, 3-cyclopropyl-1-((3,3-difluorocyclopentyl)methyl)-4-(difluoromethyl)-N-(2-(methylsulfonyl)pyridin-4-yl)-1H-pyrazole-5-carboxamide], the 50% inhibitory concentration (IC50) is no more than 100 nM.
Consider `NC(=O)c1cc(NC(=O)c2c(C(F)(F)F)cnn2CC2CCCCC2)ccc1F` [SC-35, N-(3-carbamoyl-4-fluorophenyl)-1-(cyclohexylmethyl)-4-(trifluoromethyl)-1H-pyrazole-5-carboxamide], for which the IC50 was no more than 100 nM.
With `NC(=O)c1cc(NC(=O)c2c(C(F)(F)F)c(C3CC3)nn2C[C@@H]2CO[C@H](C(F)(F)F)C2)ccn1` (single isomer, unassigned) [SC-148a], the IC50 is no more than 100 nM.
Regarding `CS(=O)(=O)c1cccc(NC(=O)c2c(C(F)(F)F)cnn2CC2(O)CCCCC2)c1` [SC-255, 1-((1-hydroxycyclohexyl)methyl)-N-(3-(methylsulfonyl)phenyl)-4-(trifluoromethyl)-1H-pyrazole-5-carboxamide], the IC50 lay within 1000 to 10000 nM.
Under `Cc1nn(C[C@H]2CCC(F)(F)C2)c(C(=O)Nc2cncc(C(N)=O)c2)c1C(F)(F)F` [SC-247S] stands 100 to 1000 nM.
With `CC1(Cn2ncc(C(F)(F)F)c2C(=O)Nc2cccc(S(C)(=O)=O)c2)CCCCC1` [SC-232, 1-((1-methylcyclohexyl)methyl)-N-(3-(methylsulfonyl)phenyl)-4-(trifluoromethyl)-1H-pyrazole-5-carboxamide], the IC50 was no more than 100 nM.
For `NC(=O)c1cc(NC(=O)c2c(C(F)(F)F)c(OC(F)F)nn2C[C@H]2CCC(F)(F)C2)ccn1` [SC-158S], the IC50 was no more than 100 nM.
Turning to `Cc1c(OC(C)(F)F)nn(CC2CC(F)(F)C2)c1C(=O)Nc1ccnc(C(N)=O)c1` [SC-309, 4-(1-((3,3-difluorocyclobutyl)methyl)-3-(1,1-difluoroethoxy)-4-methyl-1H-pyrazole-5-carboxamido)picolinamide], the IC50 lay in the range of 1000 to 10000 nM.
For `CS(=O)(=O)c1cccc(NC(=O)c2c(C(F)(F)F)cnn2CC2CCCC2)c1` [SC-25, 2-(cyclopentylmethyl)-N-(3-methylsulfonylphenyl)-4-(trifluoromethyl)pyrazole-3-carboxamide], the IC50 was in the range of 100 to 1000 nM.
Consider `Cc1c(C(C)(F)F)nn(C[C@@]2(C)CCCCO2)c1C(=O)Nc1ccnc(S(N)(=O)=O)c1` (single isomer, unassigned) [SC-312b], for which the IC50 was in the range of 100 to 1000 nM.
For `CC(C1CCCCC1)n1ncc(C(F)(F)F)c1C(=O)Nc1cccc(S(C)(=O)=O)c1` (centres unmarked) [SC-29, 2-(1-cyclohexylethyl)-N-(3-methylsulfonylphenyl)-4-(trifluoromethyl)pyrazole-3-carboxamide], the IC50 was in the range of 100 to 1000 nM.
Under `COc1c(C(C)(F)F)nn(CC2CCC(F)(F)C2)c1C(=O)Nc1ccnc(C(N)=O)c1` (single isomer, unassigned) [SC-271a] stands 100 to 1000 nM; under `NC(=O)c1cc(NC(=O)c2c(OCC(F)(F)F)c(C3CC3)nn2CC2CCC(F)(F)C2)ccn1` (centres unmarked) [SC-298, 4-(3-cyclopropyl-1-((3,3-difluorocyclopentyl)methyl)-4-(2,2,2-trifluoroethoxy)-1H-pyrazole-5-carboxamido)picolinamide], 1000 to 10000 nM.
In the case of `Cc1c(C(C)(F)F)nn(CC2(C)CCC(F)(F)C2)c1C(=O)Nc1ccnc(C(N)=O)c1` (single isomer, unassigned) [SC-214b], the IC50 is no more than 100 nM.
The result for `NC(=O)c1cc(NC(=O)c2c(C(F)(F)F)c(C3CC3)nn2C[C@@H]2CCO[C@H]2C(F)(F)F)ccn1` (racemic) [SC-147c] reads no more than 100 nM; that for `Cc1c(C(C)(F)F)nn(C[C@@]2(C)CCC(F)(F)C2)c1C(=O)Nc1ccnc(S(N)(=O)=O)c1` (single isomer, unassigned) [SC-212b], no more than 100 nM; that for `NC(=O)c1cc(NC(=O)c2c(C(F)(F)F)c(C3CC3)nn2CC2CC(F)(F)C2(F)F)ccn1` (single isomer, unassigned) [SC-291b], no more than 100 nM.
The result for `CS(=O)(=O)c1cccc(NC(=O)c2cc(C(F)(F)F)nn2CC2CCC(F)(F)CC2)c1` [SC-02, 2-[(4,4-difluorocyclohexyl)methyl]-N-(3-methylsulfonylphenyl)-5-(trifluoromethyl)pyrazole-3-carboxamide] reads 100 to 1000 nM; that for `CC(F)(F)c1nn(CC2CC(F)(F)C2)c(C(=O)Nc2ccnc(C(N)=O)c2)c1C(F)(F)F` [SC-180, 4-(1-((3,3-difluorocyclobutyl)methyl)-3-(1,1-difluoroethyl)-4-(trifluoromethyl)-1H-pyrazole-5-carboxamido)picolinamide], no more than 100 nM; that for `Cc1c(C(C)(F)F)nn(CC2(C)CCC(F)(F)C2)c1C(=O)Nc1ccnc(C(N)=O)c1` (single isomer, unassigned) [SC-214a], no more than 100 nM.
Under `CS(=O)(=O)c1cccc(NC(=O)c2cc(C(F)(F)F)nn2CC2CCCCC2)c1` [SC-01, 1-(cyclohexylmethyl)-N-(3-(methylsulfonyl)phenyl)-3-(trifluoromethyl)-1H-pyrazole-5-carboxamide] stands 100 to 1000 nM; under `Cc1c(C(F)F)nn(CC2CCC(F)(F)CC2)c1C(=O)Nc1ccnc(C(N)=O)c1` [SC-163, 4-(1-((4,4-difluorocyclohexyl)methyl)-3-(difluoromethyl)-4-methyl-1H-pyrazole-5-carboxamido)picolinamide], no more than 100 nM.
As for `Cc1cc(NC(=O)c2c(C(F)(F)F)c(C)nn2CC2CCC(F)(F)CC2)ccn1` [SC-252, 1-((4,4-difluorocyclohexyl)methyl)-3-methyl-N-(2-methylpyridin-4-yl)-4-(trifluoromethyl)-1H-pyrazole-5-carboxamide], the IC50 was in the range of 100 to 1000 nM.
